Reference: patent US20230132982A1, “USE OF PYRIDO[1,2-A]PYRIMIDINONE COMPOUND IN TREATING LYMPHOMA” (priority 2020, published 2023)

Legend:
Type in all cases: in vivo, human
[1] = tested on: relapsed/refractory diffuse large B-cell lymphoma (DLBCL); test: Clinical trial in relapsed/refractory diffuse large B-cell lymphoma (Example 5); settings: 20 mg orally once daily, 21-day cycle
Protocol: (§1) Method of administration: orally administered once daily, 20 mg each time, with 21 consecutive days of administration as one cycle. Drug: tablet of the compound of formula I, 5 mg or 20 mg. […] The efficacy was evaluated according to the revised evaluation criteria of the Lugano conference, 2014 edition. Primary evaluation indexes of efficacy: objective response rate (ORR), i.e., (CR+PR cases)/total cases, including cases of complete response (CR) and partial response (PR). Secondary evaluation indexes of efficacy: progression-free survival (PFS), overall survival (OS), disease control rate (DCR) and duration of response (DOR).

[2] = tested on: relapsed or refractory FL; test: Clinical trial in relapsed or refractory follicular lymphoma (Example 4)
Protocol: as §1, with “28” for “21”

[3] = tested on: relapsed or refractory lymphoma; test: Clinical trial of tablets of the compound of formula I in relapsed or refractory lymphoma (Example 2); set-up: key to Best efficacy: “Small SD” means that at the time of efficacy evaluation, a lesion shrinks in size compared with a baseline level, but does not meet the criteria for PR
Protocol: Drug: tablet of the compound of formula I, 1 mg or 5 mg. 2.2 Enrollment Criteria • 1) Unambiguously diagnosed as relapsed or refractory lymphoma by pathology and/or cytology; • 2) Has at least one measurable target lesion other than brain lesions confirmed by imaging in screening phase (evaluated according to the evaluation criteria revised by the Lugano conference, 2014 edition); • 3) Aged 18-75 years; • 4) ECOG (PS) score ≤1; • 5) Expected survival time ≥3 months; • 6) Main organ functions in the screening phase meet the following criteria: Criteria for blood routine examination (no growth factor used or no blood transfusion conducted within 7 days): • Absolute value of neutrophil count (ANC)≥1.5×10^9/L; • Platelet (PLT)≥75×10^9/L; hemoglobin (Hb)≥90 g/L; Criteria for blood biochemical examination: • Alanine transaminase (ALT) and aspartate transferase (AST)≤1.5×ULN (for patients with tumor liver metastasis, ≤3×ULN); • Glycosylated hemoglobin (HbA1c)≤8.5%; • Lipase≤1.5×ULN; • Serum total bilirubin≤1.5×ULN; • Serum creatinine (Cr)≤1.5×ULN; • 7) Doppler ultrasound evaluation: left ventricular ejection fraction (LVEF)≥lower limit of normal (50%); • 8) Female subjects should agree to take contraceptive measures (such as intrauterine devices [IUD], contraceptives or condoms) during the study and for 6 months after the study; serum or urine pregnancy test results should be negative within 7 days before enrollment, and the subjects must not be breastfeeding; male subjects should agree to take contraceptive measures during the study and for 6 months after the study; and • 9) Voluntary participation, written informed consent and good compliance. The efficacy was evaluated according to the revised evaluation criteria of the Lugano conference, 2014 edition. Primary evaluation indexes of efficacy: objective response rate (ORR), i.e., (CR+PR cases)/total cases, including cases of complete response (CR) and partial response (PR). Secondary evaluation indexes of efficacy: progression-free survival (PFS), overall survival (OS), disease control rate (DCR) and duration of response (DOR).

[4] = tested on: Chronic lymphocytic leukemia/small lymphocytic lymphoma; test: Clinical trial in small lymphocytic lymphoma or chronic lymphocytic leukemia (Example 6); settings: 20 mg orally once daily, 28-day cycle
Protocol: as §1, with “with 28” for “with 21”, “evaluated with reference” for “evaluated according”, “to IWCLL2008” for “to the revised”, “criteria and the evaluation criteria revised by” for “criteria of”

[5] = tested on: relapsed/refractory mantle cell lymphoma; test: Clinical trial in relapsed/refractory mantle cell lymphoma (Example 3)
Protocol: as §1, with “28” for “21”

[6] = 20 mg QD dose group, 20 patients
[7] = 22 lymphoma patients enrolled, 18 evaluable for efficacy
[8] = Tumor type Lymphoma, 43 patients
[9] = overall conclusion of the trial
[10] = patient R1009, DLBCL, 10 mg/qd, administration cycle C7D28
[11] = patient R1018, FL, 20 mg/bid, administration cycle C2D28
[12] = patient R2008, FL, 10 mg/bid, administration cycle C2D3

In the case of `COc1ncc(-c2ccc3ncc(OCCN(C)C)c(=O)n3c2)cc1NS(=O)(=O)c1ccc(F)cc1Cl` [compound of formula I], the safety in treatment [1] is reported as “good safety”, the “therapeutic effect on diffuse large B-cell lymphoma” value [1] is reported as “good therapeutic effect” and the safety in treatment ([2]; 20 mg orally once daily) is reported as “good safety”. For the same compound, the “therapeutic effect on follicular lymphoma” value ([2]; 20 mg orally once daily) was “good therapeutic effect”, the CR ([2]; 20 patients with follicular lymphoma, 20 mg orally once daily (2 cases)) was 10.0% and the ORR ([2]; 20 patients with follicular lymphoma, 20 mg orally once daily (14 cases)) was 70%. For the same compound, the ORR ([3]; 10 mg/qd and higher-dose group (11/15), 22 patients enrolled) was 73%, the “adverse event, a grade 3 hyperglycemia” value [3, 6] was 1 case and the “overall safety and tolerance” value [3, 6] was “good overall safety and tolerance”. For the same compound, the ORR ([3]; 20 mg/qd group (4/4), 22 patients enrolled) was 100%, the “patients achieved CR (best efficacy)” value [3, 7] was 2 patients and the “patients achieved PR (best efficacy)” value [3, 7] was 9 patients. For the same compound, the ORR ([3]; 35 lymphoma patients enrolled, 31 evaluated for efficacy (22/31)) was 71%, the “major grade 3 adverse event and dose-limiting toxicity (DLT) associated with study drugs” value ([3]; 35 lymphoma patients enrolled, controlled and returned to baseline by withdrawal of drug or symptom-oriented treatment) was “hyperglycemia” and the ORR ([3]; 50 lymphoma patients enrolled, 43 evaluated for efficacy (28/43)) was 65%. The “ORR, n (%)” value ([3]; Tumor type CLL, 2 patients) was 2 (100%) n (%), the “CR, n (%)” value ([3]; Tumor type DLBCL, 8 patients) was 2 (25.0%) n (%) and the “ORR, n (%)” value ([3]; Tumor type DLBCL, 8 patients) was 4 (50.0%) n (%). For the same compound, the “CR, n (%)” value ([3]; Tumor type FL, 20 patients) was 2 (10.0%) n (%), the “ORR, n (%)” value ([3]; Tumor type FL, 20 patients) was 15 (75%) n (%) and the “CR, n (%)” value [3, 8] was 4 (9.3%) n (%). The “ORR, n (%)” value [3, 8] was 28 (65%) n (%), the “ORR, n (%)” value ([3]; Tumor type MCL, 5 patients) was 5 (100%) n (%) and the “CR, n (%)” value ([3]; Tumor type NHL, 41 patients) was 4 (9.8%) n (%). The “ORR, n (%)” value ([3]; Tumor type NHL, 41 patients) was 28 (68%) n (%), the Best efficacy ([3]; all the two follicular lymphoma patients in the 20 mg/qd group) was “achieved PR” and the Best efficacy ([3]; all the two mantle cell lymphoma patients, relapsed or refractory after BTK inhibitor treatment) was “achieved PR”. For the same compound, the ORR ([3]; follicular lymphoma (FL), 10 mg/qd and higher-dose group (6/8)) was 75%, the safety [3, 9] was “good safety” and the “therapeutic effect on lymphoma” value [3, 9] was “good therapeutic effect”. For the same compound, the Change in lesion ([3]; patient R1006, FL, 10 mg/qd, administration cycle C5D28) was −84.0%, the Best efficacy [3, 10] was “Small SD” and the Change in lesion [3, 10] was −37.5%. The Best efficacy [3, 11] was “Small SD”, the Change in lesion [3, 11] was −33.0% and the Change in lesion ([3]; patient R2006, DLBCL, 10 mg/qd, administration cycle C3D28) was −100.0%. For the same compound, the Best efficacy [3, 12] was “Small SD”, the Change in lesion [3, 12] was −42.0% and the Change in lesion ([3]; patient R2009, MCL, 10 mg/bid, administration cycle C3D28) was −71.0%. The Change in lesion ([3]; patient R2011, FL, 20 mg/bid, administration cycle C1D14) was −94.0%, the safety in treatment [4] was “good safety” and the “treatment effect on small lymphocytic lymphoma or chronic lymphocytic leukemia” value [4] was “good treatment effect”. For the same compound, the safety in treatment ([5]; 20 mg orally once daily) was “good safety”, the “therapeutic effect on mantle cell lymphoma” value ([5]; 20 mg orally once daily) was “good therapeutic effect” and the CR ([5]; 21 patients with mantle cell lymphoma, 20 mg orally once daily (2 cases)) was 9.5%. The ORR ([5]; 21 patients with mantle cell lymphoma, 20 mg orally once daily (16 cases)) was 76% and the “patients reached ORR” value ([5]; of the 7 patients previously treated with a BTK inhibitor) was “Five”.
